Assay results published in ChEMBL document CHEMBL1201861, “Genomics of Drug Sensitity in Cancer screening data, Wellcome Trust Sanger Institute”.

Experiments:
Assay in all cases: cells
LK-2 = assay type: functional, cell-based, Homo sapiens; conditions: Homo sapiens, LK-2
Description: SANGER: Inhibition of human LK-2 cell growth in a cell viability assay.

CAPAN-1 = assay type: functional, cell-based, Homo sapiens; conditions: Homo sapiens, CAPAN-1
Description: SANGER: Inhibition of human CAPAN-1 cell growth in a cell viability assay.

D-423MG = assay type: functional, cell-based, Homo sapiens; conditions: Homo sapiens, D-423MG
Description: SANGER: Inhibition of human D-423MG cell growth in a cell viability assay.

A-431 = assay type: functional, cell-based, Homo sapiens; conditions: Homo sapiens, A-431
Description: SANGER: Inhibition of human A431 cell growth in a cell viability assay.

LCLC-103H cell line = assay type: functional, cell-based, Homo sapiens; conditions: Homo sapiens, LCLC-103H
Description: SANGER: Inhibition of human LCLC-103H cell growth in a cell viability assay.

SW13 = assay type: functional, cell-based, Homo sapiens; conditions: Homo sapiens, SW13
Description: SANGER: Inhibition of human SW13 cell growth in a cell viability assay.

COLO-680N = assay type: functional, cell-based, Homo sapiens; conditions: Homo sapiens, COLO-680N
Description: SANGER: Inhibition of human COLO-680N cell growth in a cell viability assay.

KYSE-450 = assay type: functional, cell-based, Homo sapiens; conditions: Homo sapiens, KYSE-450
Description: SANGER: Inhibition of human KYSE-450 cell growth in a cell viability assay.

A673 = assay type: functional, cell-based, Homo sapiens; conditions: Homo sapiens, A673
Description: SANGER: Inhibition of human A673 cell growth in a cell viability assay.

MG-63 = assay type: functional, cell-based, Homo sapiens; conditions: Homo sapiens, MG-63
Description: SANGER: Inhibition of human MG-63 cell growth in a cell viability assay.

SW1463 = assay type: functional, cell-based, Homo sapiens; conditions: Homo sapiens, SW1463
Description: SANGER: Inhibition of human SW1463 cell growth in a cell viability assay.

BCPAP = assay type: functional, cell-based, Homo sapiens; conditions: Homo sapiens, BCPAP
Description: SANGER: Inhibition of human BCPAP cell growth in a cell viability assay.

DU-145 = assay type: functional, cell-based, Homo sapiens; conditions: Homo sapiens, DU-145
Description: SANGER: Inhibition of human DU-145 cell growth in a cell viability assay.

ACHN = assay type: functional, cell-based, Homo sapiens; conditions: Homo sapiens, ACHN
Description: SANGER: Inhibition of human ACHN cell growth in a cell viability assay.

MDA-MB-415 = assay type: functional, cell-based, Homo sapiens; conditions: Homo sapiens, MDA-MB-415
NCI-H2405 = assay type: functional, cell-based, Homo sapiens; conditions: Homo sapiens, NCI-H2405
Description: SANGER: Inhibition of human NCI-H2405 cell growth in a cell viability assay.

PC-3 = assay type: functional, cell-based, Homo sapiens; conditions: Homo sapiens, PC-3
Description: SANGER: Inhibition of human PC-3 cell growth in a cell viability assay.

HO-1-N-1 = assay type: functional, cell-based, Homo sapiens; conditions: Homo sapiens, HO-1-N-1
Description: SANGER: Inhibition of human HO-1-N-1 cell growth in a cell viability assay.

NCI-H2052 = assay type: functional, cell-based, Homo sapiens; conditions: Homo sapiens, NCI-H2052
Description: SANGER: Inhibition of human NCI-H2052 cell growth in a cell viability assay.

HMV-2 cell line = assay type: functional, cell-based, Homo sapiens; conditions: Homo sapiens, HMV-2
Description: SANGER: Inhibition of human HMV-II cell growth in a cell viability assay.

PANC-08-13 = assay type: functional, cell-based, Homo sapiens; conditions: Homo sapiens, PANC-08-13
Description: SANGER: Inhibition of human PANC-08-13 cell growth in a cell viability assay.

SK-MEL-30 = assay type: functional, cell-based, Homo sapiens; conditions: Homo sapiens, SK-MEL-30
Description: SANGER: Inhibition of human SK-MEL-30 cell growth in a cell viability assay.

CAMA-1 = assay type: functional, cell-based, Homo sapiens; conditions: Homo sapiens, CAMA-1
Description: SANGER: Inhibition of human CAMA-1 cell growth in a cell viability assay.

COR-L23 = assay type: functional, cell-based, Homo sapiens; conditions: Homo sapiens, COR-L23
Description: SANGER: Inhibition of human COR-L23 cell growth in a cell viability assay.

BT-549 = assay type: functional, cell-based, Homo sapiens; conditions: Homo sapiens, BT-549
Description: SANGER: Inhibition of human BT-549 cell growth in a cell viability assay.

FaDu = assay type: functional, cell-based, Homo sapiens; conditions: Homo sapiens, FaDu
Description: SANGER: Inhibition of human FADU cell growth in a cell viability assay.

SK-MES-1 = assay type: functional, cell-based, Homo sapiens; conditions: Homo sapiens, SK-MES-1
Description: SANGER: Inhibition of human SK-MES-1 cell growth in a cell viability assay.

HuCCT-1 = assay type: functional, cell-based, Homo sapiens, HuCCT1; conditions: Homo sapiens, HuCCT-1
Description: SANGER: Inhibition of human HuCCT1 cell growth in a cell viability assay.

HCC70 = assay type: functional, cell-based, Homo sapiens; conditions: Homo sapiens, HCC70
Description: SANGER: Inhibition of human HCC70 cell growth in a cell viability assay.

8505C = assay type: functional, cell-based, Homo sapiens; conditions: Homo sapiens, 8505C
Description: SANGER: Inhibition of human 8505C cell growth in a cell viability assay.

CAL-33 = assay type: functional, cell-based, Homo sapiens; conditions: Homo sapiens, CAL-33
Description: SANGER: Inhibition of human CAL-33 cell growth in a cell viability assay.

Calu-3 = assay type: functional, cell-based, Homo sapiens; conditions: Homo sapiens, Calu-3
Description: SANGER: Inhibition of human Calu-3 cell growth in a cell viability assay.

CAL-62 = assay type: functional, cell-based, Homo sapiens; conditions: Homo sapiens, CAL-62
Description: SANGER: Inhibition of human CAL-62 cell growth in a cell viability assay.

MKN-7 = assay type: functional, cell-based, Homo sapiens; conditions: Homo sapiens, MKN-7
Description: SANGER: Inhibition of human MKN7 cell growth in a cell viability assay.

BFTC-905 = assay type: functional, cell-based, Homo sapiens; conditions: Homo sapiens, BFTC-905
Description: SANGER: Inhibition of human BFTC-905 cell growth in a cell viability assay.

NB14 = assay type: functional, cell-based, Homo sapiens; conditions: Homo sapiens, NB14
Description: SANGER: Inhibition of human NB14 cell growth in a cell viability assay.

MDA-MB-453 = assay type: functional, cell-based, Homo sapiens; conditions: Homo sapiens, MDA-MB-453
Description: SANGER: Inhibition of human MDA-MB-453 cell growth in a cell viability assay.

EFM-19 = assay type: functional, cell-based, Homo sapiens; conditions: Homo sapiens, EFM-19
Description: SANGER: Inhibition of human EFM-19 cell growth in a cell viability assay.

SW1417 = assay type: functional, cell-based, Homo sapiens; conditions: Homo sapiens, SW1417
Description: SANGER: Inhibition of human SW1417 cell growth in a cell viability assay.

UO-31 = assay type: functional, cell-based, Homo sapiens; conditions: Homo sapiens, UO-31
Description: SANGER: Inhibition of human U031 cell growth in a cell viability assay.

TUR = assay type: functional, cell-based, Homo sapiens; conditions: Homo sapiens, TUR
Description: SANGER: Inhibition of human TUR cell growth in a cell viability assay.

HSC-4 = assay type: functional, cell-based, Homo sapiens; conditions: Homo sapiens, HSC-4
Description: SANGER: Inhibition of human HSC-4 cell growth in a cell viability assay.

NCI-H2081 = assay type: functional, cell-based, Homo sapiens; conditions: Homo sapiens, NCI-H2081
Description: SANGER: Inhibition of human NCI-H2081 cell growth in a cell viability assay.

NCI-H345 = assay type: functional, cell-based, Homo sapiens; conditions: Homo sapiens, NCI-H345
Description: SANGER: Inhibition of human NCI-H345 cell growth in a cell viability assay.

23132-87 = assay type: functional, cell-based, Homo sapiens; conditions: Homo sapiens
Description: SANGER: Inhibition of human 23132-87 cell growth in a cell viability assay.

ECC4 = assay type: functional, cell-based, Homo sapiens; conditions: Homo sapiens, ECC4
Description: SANGER: Inhibition of human ECC4 cell growth in a cell viability assay.

NALM-6 = assay type: functional, cell-based, Homo sapiens; conditions: Homo sapiens, NALM-6
Description: SANGER: Inhibition of human NALM-6 cell growth in a cell viability assay.

SUP-T1 = assay type: functional, cell-based, Homo sapiens; conditions: Homo sapiens, SUP-T1
Description: SANGER: Inhibition of human SUP-T1 cell growth in a cell viability assay.

NCI-H64 = assay type: functional, cell-based, Homo sapiens; conditions: Homo sapiens, NCI-H64
Description: SANGER: Inhibition of human NCI-H64 cell growth in a cell viability assay.

## CCN(CC)CCCCNc1ncc2cc(-c3cc(OC)cc(OC)c3)c(NC(=O)NC(C)(C)C)nc2n1 [PD-173074]
LK-2
  IC50: > 2000 nM
CAPAN-1
  IC50: > 2000 nM
D-423MG
  IC50: > 2000 nM
A-431
  IC50: > 2000 nM
LCLC-103H cell line
  IC50: > 2000 nM
SW13
  IC50: > 2000 nM
COLO-680N
  IC50: > 2000 nM
KYSE-450
  IC50: > 2000 nM
A673
  IC50: > 2000 nM
MG-63
  IC50: > 2000 nM
SW1463
  IC50: > 2000 nM
BCPAP
  IC50: > 2000 nM
DU-145
  IC50: 1580 nM
ACHN
  IC50: > 2000 nM
MDA-MB-415
  IC50: > 2000 nM
NCI-H2405
  IC50: > 2000 nM
PC-3
  IC50: > 2000 nM
HO-1-N-1
  IC50: > 2000 nM
NCI-H2052
  IC50: > 2000 nM
HMV-2 cell line
  IC50: > 2000 nM
PANC-08-13
  IC50: > 2000 nM
SK-MEL-30
  IC50: > 2000 nM
CAMA-1
  IC50: > 2000 nM
COR-L23
  IC50: > 2000 nM
BT-549
  IC50: > 2000 nM
FaDu
  IC50: > 2000 nM
SK-MES-1
  IC50: > 2000 nM
HuCCT-1
  IC50: > 2000 nM
HCC70
  IC50: > 2000 nM
8505C
  IC50: > 2000 nM
CAL-33
  IC50: > 2000 nM
Calu-3
  IC50: > 2000 nM
CAL-62
  IC50: > 2000 nM
MKN-7
  IC50: > 2000 nM
BFTC-905
  IC50: > 2000 nM
NB14
  IC50: > 2000 nM
MDA-MB-453
  IC50: > 2000 nM
EFM-19
  IC50: > 2000 nM
SW1417
  IC50: > 2000 nM
UO-31
  IC50: > 2000 nM

## COc1cc2c(Nc3ccc(NC(=O)c4ccccc4)cc3)ncnc2cc1OCCCN1CCOCC1
LK-2
  IC50: 1650 nM
CAPAN-1
  IC50: > 4000 nM
D-423MG
  IC50: > 4000 nM
A-431
  IC50: > 4000 nM
LCLC-103H cell line
  IC50: > 4000 nM
SW13
  IC50: > 4000 nM
COLO-680N
  IC50: > 4000 nM
KYSE-450
  IC50: > 4000 nM
A673
  IC50: > 4000 nM
MG-63
  IC50: > 4000 nM
SW1463
  IC50: > 4000 nM
BCPAP
  IC50: > 4000 nM
DU-145
  IC50: > 4000 nM
ACHN
  IC50: > 4000 nM
MDA-MB-415
  IC50: > 4000 nM
NCI-H2405
  IC50: > 4000 nM
PC-3
  IC50: > 4000 nM
HO-1-N-1
  IC50: 2150 nM
NCI-H2052
  IC50: > 4000 nM
HMV-2 cell line
  IC50: > 4000 nM
PANC-08-13
  IC50: > 4000 nM
SK-MEL-30
  IC50: > 4000 nM
CAMA-1
  IC50: > 4000 nM
COR-L23
  IC50: > 4000 nM
BT-549
  IC50: > 4000 nM
FaDu
  IC50: > 4000 nM
SK-MES-1
  IC50: > 4000 nM
HuCCT-1
  IC50: > 4000 nM
HCC70
  IC50: > 4000 nM
8505C
  IC50: > 4000 nM
CAL-33
  IC50: 1730 nM
Calu-3
  IC50: > 4000 nM
CAL-62
  IC50: > 4000 nM
MKN-7
  IC50: > 4000 nM
BFTC-905
  IC50: 2420 nM
NB14
  IC50: 1560 nM
MDA-MB-453
  IC50: > 4000 nM
EFM-19
  IC50: > 4000 nM
SW1417
  IC50: > 4000 nM
UO-31
  IC50: > 4000 nM

## N#Cc1c(O)c2c(-c3ccc(-c4ccccc4O)cc3)csc2[nH]c1=O
LK-2
  IC50: > 1020 nM
CAPAN-1
  IC50: 256 nM
A-431
  IC50: 29.2 nM
LCLC-103H cell line
  IC50: > 1020 nM
TUR
  IC50: 345 nM
SW13
  IC50: > 1020 nM
COLO-680N
  IC50: > 1020 nM
KYSE-450
  IC50: > 1020 nM
A673
  IC50: > 1020 nM
HSC-4
  IC50: > 1020 nM
MG-63
  IC50: > 1020 nM
SW1463
  IC50: > 1020 nM
BCPAP
  IC50: > 1020 nM
DU-145
  IC50: > 1020 nM
ACHN
  IC50: > 1020 nM
MDA-MB-415
  IC50: > 1020 nM
NCI-H2405
  IC50: > 1020 nM
PC-3
  IC50: > 1020 nM
HO-1-N-1
  IC50: > 1020 nM
NCI-H2052
  IC50: > 1020 nM
NCI-H2081
  IC50: > 1020 nM
HMV-2 cell line
  IC50: > 1020 nM
PANC-08-13
  IC50: > 1020 nM
SK-MEL-30
  IC50: > 1020 nM
CAMA-1
  IC50: > 1020 nM
COR-L23
  IC50: > 1020 nM
FaDu
  IC50: > 1020 nM
SK-MES-1
  IC50: > 1020 nM
HuCCT-1
  IC50: > 1020 nM
NCI-H345
  IC50: > 1020 nM
HCC70
  IC50: > 1020 nM
8505C
  IC50: > 1020 nM
23132-87
  IC50: > 1020 nM
CAL-33
  IC50: > 1020 nM
ECC4
  IC50: 509 nM
NALM-6
  IC50: 31.7 nM
Calu-3
  IC50: > 1020 nM
SUP-T1
  IC50: 265 nM
CAL-62
  IC50: > 1020 nM
MKN-7
  IC50: > 1020 nM
BFTC-905
  IC50: > 1020 nM
MDA-MB-453
  IC50: > 1020 nM
NCI-H64
  IC50: > 1020 nM
EFM-19
  IC50: > 1020 nM
SW1417
  IC50: > 1020 nM
UO-31
  IC50: > 1020 nM

## Cn1cnc2c(F)c(Nc3ccc(Br)cc3Cl)c(C(=O)NOCCO)cc21 [SELUMETINIB]
LK-2
  IC50: > 4000 nM
CAPAN-1
  IC50: > 4000 nM
D-423MG
  IC50: > 4000 nM
A-431
  IC50: > 4000 nM
LCLC-103H cell line
  IC50: > 4000 nM
COLO-680N
  IC50: > 4000 nM
KYSE-450
  IC50: > 4000 nM
A673
  IC50: > 4000 nM
MG-63
  IC50: > 4000 nM
SW1463
  IC50: > 4000 nM
BCPAP
  IC50: 2130 nM
DU-145
  IC50: > 4000 nM
MDA-MB-415
  IC50: > 4000 nM
NCI-H2405
  IC50: > 4000 nM
PC-3
  IC50: > 4000 nM
HO-1-N-1
  IC50: 741 nM
NCI-H2052
  IC50: > 4000 nM
PANC-08-13
  IC50: > 4000 nM
SK-MEL-30
  IC50: 782 nM
CAMA-1
  IC50: > 4000 nM
COR-L23
  IC50: 3960 nM
BT-549
  IC50: > 4000 nM
FaDu
  IC50: > 4000 nM
SK-MES-1
  IC50: > 4000 nM
HuCCT-1
  IC50: 1300 nM
HCC70
  IC50: > 4000 nM
8505C
  IC50: > 4000 nM
CAL-33
  IC50: 1550 nM
Calu-3
  IC50: > 4000 nM
CAL-62
  IC50: 1520 nM
MKN-7
  IC50: > 4000 nM
BFTC-905
  IC50: 2420 nM
NB14
  IC50: > 4000 nM
MDA-MB-453
  IC50: > 4000 nM
EFM-19
  IC50: > 4000 nM
SW1417
  IC50: > 4000 nM
